In ChEMBL document CHEMBL4219068 (Bioorg Med Chem, 2018):
Active and inactive are the calls of the source. No cut-off for these calls is given here.

How the values were obtained:
[1] = Drug metabolism in pH 7.4 PBS assessed as auto-oxidization by measuring 6-methyl-5,6-dihydro-4H-dibenzo[de,g]quinoline-10,11-dione level at 50 uM measured after 2 hrs by HPLC analysis; assay type: physicochemical; details: buffer, pH 7.4, 2 h
[2] = Drug metabolism in pH 7.4 PBS assessed as auto-oxidization by measuring 6-methyl-5,6-dihydro-4H-dibenzo[de,g]quinoline-10,11-dione level at 50 uM measured after 0 hrs by HPLC analysis; assay type: physicochemical; details: buffer, pH 7.4, 0 h
[3] = molecular target: Amyloid-beta precursor protein (Homo sapiens) (UniProt P05067); experiment: Binding affinity to amyloid beta (1 to 42) (unknown origin) assessed as retention time for amyloid beta (1 to 42) - 6-methyl-5,6-dihydro-4H-dibenzo[de,g]quinoline-10,11-dione adduct at 250 uM after 1 hr by LC/Q Tof-MS analysis
[4] = molecular target: Amyloid-beta precursor protein (Homo sapiens) (UniProt P05067); experiment: Inhibition of HFIP pretreated amyloid beta (1 to 42) (unknown origin) aggregation assessed as time for nucleation phase of aggregation at 5 uM by Thioflavin-T fluorescence assay (reference value: 4 to 5 hrs)
[5] = molecular target: Amyloid-beta precursor protein (Homo sapiens) (UniProt P05067); experiment: Inhibition of amyloid beta (1 to 42) (unknown origin) aggregation at 5 uM in presence of reductant TCEP by Thioflavin-T fluorescence assay
[6] = molecular target: Amyloid-beta precursor protein (Homo sapiens) (UniProt P05067); experiment: Inhibition of amyloid beta (1 to 42) (unknown origin) aggregation at 5 uM after 48 hrs by Thioflavin-T fluorescence assay relative to control
[7] = molecular target: Amyloid-beta precursor protein (Homo sapiens) (UniProt P05067); experiment: Inhibition of amyloid beta (1 to 42) (unknown origin) aggregation at 0.25 to 50 uM after 48 hrs by uranyl acetate staining based transmission electron microscopic method
[8] = Drug metabolism in pH 7.4 PBS assessed as auto-oxidization by measuring 6-methyl-5,6-dihydro-4H-dibenzo[de,g]quinoline-10,11-dione level at 50 uM measured after 24 hrs by HPLC analysis; assay type: physicochemical; details: buffer, pH 7.4, 24 h
[9] = molecular target: Amyloid-beta precursor protein (Homo sapiens) (UniProt P05067); experiment: Inhibition of amyloid beta (1 to 42) (unknown origin) aggregation by Thioflavin-T fluorescence assay
[10] = Drug metabolism in pH 7.4 PBS assessed as auto-oxidization by measuring 6-methyl-5,6-dihydro-4H-dibenzo[de,g]quinoline-10,11-dione level at 50 uM measured after 4 hrs by HPLC analysis; assay type: physicochemical; details: buffer, pH 7.4, 4 h
[11] = Drug metabolism in pH 7.4 PBS assessed as auto-oxidization by measuring 6-methyl-5,6-dihydro-4H-dibenzo[de,g]quinoline-10,11-dione level at 50 uM measured after 1 hr by HPLC analysis; assay type: physicochemical; details: buffer, pH 7.4, 1 h
[12] = molecular target: Amyloid-beta precursor protein (Homo sapiens) (UniProt P05067); experiment: Inhibition of amyloid beta (1 to 42) (unknown origin) aggregation at 5 uM by Thioflavin-T fluorescence assay; details: TDE = time-dependent effect
[13] = molecular target: Amyloid-beta precursor protein (Homo sapiens) (UniProt P05067); experiment: Binding affinity to amyloid beta (1 to 42) (unknown origin) assessed as retention time for amyloid beta (1 to 42) (Lys28)-compound adduct at 250 uM after 1 hr by LC/Q Tof-MS analysis
[14] = molecular target: Amyloid-beta precursor protein (Homo sapiens) (UniProt P05067); experiment: Binding affinity to amyloid beta (9 to 35) E22P M35ox mutant (unknown origin) oxidized at M35 residue assessed as E22P M35ox(Lys16/Lys28)-compound adduct formation at 250 uM after 1 hr by LC/Q Tof-MS analysis
[15] = molecular target: Amyloid-beta precursor protein (Homo sapiens) (UniProt P05067); experiment: Inhibition of amyloid beta (1 to 42) (unknown origin)-mediated toxicity in human SH-SY5Y cells at 500 uM preincubated with amyloid beta (1 to 42) for 30 mins followed by addition to cells measured after 24 hrs by MTT assay; assay type: cell-based
[16] = molecular target: Amyloid-beta precursor protein (Homo sapiens) (UniProt P05067); experiment: Binding affinity to amyloid beta (1 to 42) (unknown origin) assessed as retention time for amyloid beta (1 to 42) (Lys16)-compound adduct at 250 uM after 1 hr by LC/Q Tof-MS analysis
[17] = Drug metabolism in pH 7.4 PBS assessed as auto-oxidization by measuring 6-methyl-5,6-dihydro-4H-dibenzo[de,g]quinoline-10,11-dione level at 50 uM measured after 8 hrs by HPLC analysis; assay type: physicochemical; details: buffer, pH 7.4, 8 h
[18] = Drug level in pH 7.4 PBS treated with apomorphine at 8 to 50 uM measured up to 24 hrs by HPLC analysis; assay type: physicochemical; details: buffer, pH 7.4, 24 h
[19] = Drug level in pH 7.4 PBS treated with apomorphine at 50 uM measured after 8 hrs by HPLC analysis; assay type: physicochemical; details: buffer, pH 7.4, 8 h
[20] = molecular target: Amyloid-beta precursor protein (Homo sapiens) (UniProt P05067); experiment: Binding affinity to amyloid beta (1 to 42) (unknown origin) assessed as retention time for amyloid beta (1 to 42)-compound adduct formation at 250 uM after 1 hr by LC/Q Tof-MS analysis
[21] = Drug level in pH 7.4 PBS at 50 uM measured after 0 hrs by HPLC analysis; assay type: physicochemical; details: buffer, pH 7.4, 0 h
[22] = Drug level in pH 7.4 PBS treated with apomorphine at 8 uM measured immediately by HPLC analysis; assay type: physicochemical; details: buffer, pH 7.4, 8 µM
[23] = Drug level in pH 7.4 PBS at 50 uM measured after 2 hrs by HPLC analysis; assay type: physicochemical; details: buffer, pH 7.4, 2 h
[24] = Drug level in pH 7.4 PBS at 50 uM measured after 24 hrs by HPLC analysis; assay type: physicochemical; details: buffer, pH 7.4, 24 h
[25] = Drug level in pH 7.4 PBS at 50 uM measured after 1 hr by HPLC analysis; assay type: physicochemical; details: buffer, pH 7.4, 1 h
[26] = Drug level in pH 7.4 PBS treated with apomorphine at 50 uM up to 8 hrs by UV-Visible spectroscopic analysis; assay type: physicochemical; details: buffer, pH 7.4, 8 h
[27] = Drug level in pH 7.4 PBS at 50 uM measured after 8 hrs by HPLC analysis; assay type: physicochemical; details: buffer, pH 7.4, 8 h
[28] = Drug level in pH 7.4 PBS at 50 uM measured after 48 hrs by HPLC analysis; assay type: physicochemical; details: buffer, pH 7.4, 48 h
[29] = Drug level in pH 7.4 PBS at 50 uM measured after 4 hrs by HPLC analysis; assay type: physicochemical; details: buffer, pH 7.4, 4 h

Chain of Amyloid-beta precursor protein (Homo sapiens) (P05067 whole entry): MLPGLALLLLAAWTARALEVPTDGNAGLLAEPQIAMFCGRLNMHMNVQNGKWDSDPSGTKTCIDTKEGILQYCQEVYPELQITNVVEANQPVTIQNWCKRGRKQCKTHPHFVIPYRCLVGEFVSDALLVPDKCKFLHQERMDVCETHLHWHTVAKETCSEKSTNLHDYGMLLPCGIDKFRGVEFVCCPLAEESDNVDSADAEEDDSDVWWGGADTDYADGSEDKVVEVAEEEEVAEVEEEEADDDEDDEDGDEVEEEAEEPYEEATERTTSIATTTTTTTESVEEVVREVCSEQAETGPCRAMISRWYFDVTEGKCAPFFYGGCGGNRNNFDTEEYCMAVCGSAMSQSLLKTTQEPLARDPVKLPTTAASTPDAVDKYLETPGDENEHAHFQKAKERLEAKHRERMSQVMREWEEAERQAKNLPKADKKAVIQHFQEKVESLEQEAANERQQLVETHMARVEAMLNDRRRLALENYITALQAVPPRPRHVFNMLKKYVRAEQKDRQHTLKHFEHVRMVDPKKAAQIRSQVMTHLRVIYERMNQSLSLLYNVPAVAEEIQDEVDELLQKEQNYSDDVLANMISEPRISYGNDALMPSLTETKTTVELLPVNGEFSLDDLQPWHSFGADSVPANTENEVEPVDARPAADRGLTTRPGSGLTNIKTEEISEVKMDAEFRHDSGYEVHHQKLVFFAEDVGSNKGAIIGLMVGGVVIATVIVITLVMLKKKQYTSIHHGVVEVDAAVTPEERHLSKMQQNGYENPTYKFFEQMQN

CN1CCc2cccc3c2[C@H]1Cc1ccc(O)c(O)c1-3 [APOMORPHINE]
Drug metabolism [1]: 32 µM | Drug metabolism [2]: 8 µM | Activity [3]: Active | TIME [4]: 6 to 7 h | inhibition [5]: inactive | inhibition [6]: > 50% | inhibition [7]: Active | Drug metabolism [8]: 25 µM | inhibition [9]: Dose-dependent effect | Drug metabolism [10]: 47 µM | Drug metabolism [11]: 23 µM | inhibition [12]: Tde | Retention time [13]: 6.9 min | Activity [14]: Active | inhibition [15]: inactive | Retention time [16]: 6.4 min | Drug metabolism [17]: 50 µM

CNCCc1cccc2c3c(ccc12)C=CC(=O)C3=O
Drug metabolism [18]: Metabolite_Detected

CN1CCc2cccc3c4c(cc1c23)C=CC(=O)C4=O
Drug metabolism [19]: Metabolite_Detected | Activity [20]: inactive | TIME [4]: 6 to 7 h | Drug uptake [21]: 31 µM | inhibition [6]: > 50% | Drug metabolism [22]: Metabolite_Detected | Drug uptake [23]: 22 µM | Drug uptake [24]: 19 µM | inhibition [12]: Tde | Drug uptake [25]: 24 µM | Drug metabolism [26]: Metabolite_Detected | Drug uptake [27]: 24 µM | Drug uptake [28]: 15 µM | inhibition [15]: inactive | Drug uptake [29]: 24 µM

CN1CCc2cccc3c2C1=CC(=O)C3=O
Drug metabolism [18]: Metabolite_Detected
